Values joined by “and” are separate entries in the source; they are usually repeats but may differ in a detail not shown here. Identical values can stand only once. Inconclusive results and toxic doses are left out.
Tested on: CD2F1 mice, L1210 leukemia ip, survival T/C
Assay: NCI In Vivo Anticancer Drug Screen. Data for tumor model L1210 Leukemia (intraperitoneal) in CD2F1 (CDF1) mice
Details: higher = longer survival
Method in brief: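 Read-out first: treated-group measurement over vehicle-control measurement, expressed as a ratio. Animals bore a transplanted tumor line and were dosed with compound or vehicle.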

[1] = endpoint: mean survival time, dose: 100.0 mg/kg/injection, schedule: Q01DX009 (ip), vehicle: saline with Tween-80
[2] = endpoint: mean survival time, dose: 200.0 mg/kg/injection, schedule: Q01DX009 (ip), vehicle: saline with Tween-80
[3] = endpoint: mean survival time, dose: 400.0 mg/kg/injection, schedule: Q01DX009 (ip), vehicle: saline with Tween-80
[4] = endpoint: mean survival time, dose: 100.0 mg/kg/injection, schedule: Q04DX003 (ip), vehicle: saline with Tween-80
[5] = endpoint: mean survival time, dose: 200.0 mg/kg/injection, schedule: Q04DX003 (ip), vehicle: saline with Tween-80
[6] = endpoint: mean survival time, dose: 400.0 mg/kg/injection, schedule: Q04DX003 (ip), vehicle: saline with Tween-80
[7] = endpoint: mean survival time, dose: 100.0 mg/kg/injection, schedule: Q01DX001 (ip), vehicle: saline with Tween-80
[8] = endpoint: mean survival time, dose: 200.0 mg/kg/injection, schedule: Q01DX001 (ip), vehicle: saline with Tween-80
[9] = endpoint: mean survival time, dose: 400.0 mg/kg/injection, schedule: Q01DX001 (ip), vehicle: saline with Tween-80
[10] = endpoint: mean survival time, dose: 50.0 mg/kg/injection, schedule: Q01DX009 (ip), vehicle: Klucel (hydroxypropylcellulose) (HPC)
[11] = endpoint: mean survival time, dose: 12.5 mg/kg/injection, schedule: Q01DX009 (ip), vehicle: other
[12] = endpoint: mean survival time, dose: 25.0 mg/kg/injection, schedule: Q01DX009 (ip), vehicle: other
[13] = endpoint: mean survival time, dose: 50.0 mg/kg/injection, schedule: Q01DX009 (ip), vehicle: other
[14] = endpoint: mean survival time, dose: 100.0 mg/kg/injection, schedule: Q01DX001 (ip), vehicle: saline
[15] = endpoint: mean survival time, dose: 25.0 mg/kg/injection, schedule: Q01DX009 (ip), vehicle: water
[16] = endpoint: mean survival time, dose: 50.0 mg/kg/injection, schedule: Q01DX009 (ip), vehicle: water
[17] = endpoint: mean survival time, dose: 100.0 mg/kg/injection, schedule: Q01DX009 (ip), vehicle: water

COc1ccc(/C=C(\C#N)c2ccc(C)cc2)cc1OC
T/C [1]: 101 % of control
T/C [2]: 108 % of control
T/C [3]: 107 % of control

NC(N)=Nc1ccc(C(=O)O)cc1
T/C [4]: 100 % of control
T/C [5]: 95 % of control
T/C [6]: 88 % of control

Cc1nc([N+](=O)[O-])c(Br)n1C
T/C [4]: 103 % of control
T/C [5]: 108 % of control
T/C [6]: 94 % of control

CC(=O)NC1CC(n2cnc3c(=O)[nH]c(N)nc32)OC1C(C)O (stereo not drawn)
T/C (endpoint: median survival time, dose: 12.5 mg/kg/injection, schedule: Q01DX005 (ip), vehicle: distilled water + Tween-80): 101 % of control
T/C (endpoint: median survival time, dose: 25.0 mg/kg/injection, schedule: Q01DX005 (ip), vehicle: distilled water + Tween-80): 102 % of control
T/C (endpoint: median survival time, dose: 50.0 mg/kg/injection, schedule: Q01DX005 (ip), vehicle: distilled water + Tween-80): 100 % of control
T/C (endpoint: median survival time, dose: 100.0 mg/kg/injection, schedule: Q01DX005 (ip), vehicle: distilled water + Tween-80): 89 % of control

N#Cc1cccnc1Cl
T/C (endpoint: median survival time, dose: 50.0 mg/kg/injection, schedule: Q04DX002 (ip), vehicle: saline with Tween-80): 100 % of control
T/C (endpoint: median survival time, dose: 100.0 mg/kg/injection, schedule: Q04DX002 (ip), vehicle: saline with Tween-80): 100 % of control
T/C (endpoint: median survival time, dose: 200.0 mg/kg/injection, schedule: Q04DX002 (ip), vehicle: saline with Tween-80): 111 % of control

N#C/C(=C/c1ccccc1Cl)C(N)=O
T/C (endpoint: mean survival time, dose: 100.0 mg/kg/injection, schedule: Q01DX001 (ip), vehicle: saline sonified): 103 % of control
T/C (endpoint: mean survival time, dose: 200.0 mg/kg/injection, schedule: Q01DX001 (ip), vehicle: saline sonified): 100 % of control
T/C (endpoint: mean survival time, dose: 400.0 mg/kg/injection, schedule: Q01DX001 (ip), vehicle: saline sonified): 104 % of control

COC(=O)C(Cc1c[nH]c2ccccc12)NC(=O)C(Cc1c[nH]c2ccccc12)NC(=O)OC(C)(C)C (stereo not drawn)
T/C [7]: 87 % of control
T/C [1]: 98 % of control
T/C [8]: 96 % of control
T/C [2]: 96 % of control
T/C [9]: 100 % of control
T/C [3]: 104 % of control

CCCCCCCCCCCCCC1CCCC(C)N1 (stereo not drawn)
T/C (endpoint: mean survival time, dose: 50.0 mg/kg/injection, schedule: Q04DX002 (ip), vehicle: saline with Tween-80): 89 % of control and 94 % of control
T/C (endpoint: mean survival time, dose: 100.0 mg/kg/injection, schedule: Q04DX002 (ip), vehicle: saline with Tween-80): 93 % of control and 94 % of control
T/C (endpoint: mean survival time, dose: 200.0 mg/kg/injection, schedule: Q04DX002 (ip), vehicle: saline with Tween-80): 101 % of control

CCCCCCCCCCCCOc1ccc(Cl)cc1Sc1cc(Cl)ccc1OCCCCCCCCCCCC
T/C [7]: 92 % of control
T/C [8]: 93 % of control
T/C [9]: 86 % of control

O=C(Nc1ccc2c(c1)Cc1cccc(NC(=O)C(Cl)Cl)c1-2)C(Cl)Cl
T/C (endpoint: mean survival time, dose: 12.5 mg/kg/injection, schedule: Q01DX009 (ip), vehicle: Klucel (hydroxypropylcellulose) (HPC)): 90 % of control
T/C (endpoint: mean survival time, dose: 25.0 mg/kg/injection, schedule: Q01DX009 (ip), vehicle: Klucel (hydroxypropylcellulose) (HPC)): 93 % of control
T/C [10]: 87 % of control

CC(=O)O[C@@H]1CO[C@H]2O[C@H]3[C@@H](C(C=O)=C[C@H](O)[C@@H]4C5=C(C(C)C)CC[C@]5(C)CC[C@@]34C)[C@@]2(O)C1=O
T/C (endpoint: mean survival time, dose: 0.75 mg/kg/injection, schedule: Q01DX009 (ip), vehicle: Klucel (hydroxypropylcellulose) (HPC)): 104 % of control
T/C (endpoint: mean survival time, dose: 1.5 mg/kg/injection, schedule: Q01DX009 (ip), vehicle: Klucel (hydroxypropylcellulose) (HPC)): 104 % of control
T/C (endpoint: mean survival time, dose: 3.0 mg/kg/injection, schedule: Q01DX009 (ip), vehicle: Klucel (hydroxypropylcellulose) (HPC)): 104 % of control
T/C (endpoint: mean survival time, dose: 6.0 mg/kg/injection, schedule: Q01DX009 (ip), vehicle: Klucel (hydroxypropylcellulose) (HPC)): 107 % of control

Cc1cc(N=C(N)N)ccc1C(=O)Oc1ccc([N+](=O)[O-])cc1
T/C [11]: 102 % of control
T/C [12]: 98 % of control
T/C [13]: 90 % of control

CCC1(O)C(=O)OCc2c1cc1n(c2=O)Cc2cc3ccc(CO)cc3nc2-1 (stereo not drawn)
T/C (endpoint: median survival time, dose: 4.0 mg/kg/injection, schedule: Q04DX002 (ip), vehicle: saline with Tween-80): 100 % of control
T/C (endpoint: median survival time, dose: 8.0 mg/kg/injection, schedule: Q04DX002 (ip), vehicle: saline with Tween-80): 113 % of control
T/C (endpoint: median survival time, dose: 16.0 mg/kg/injection, schedule: Q04DX002 (ip), vehicle: saline with Tween-80): 98 % of control
T/C (endpoint: median survival time, dose: 32.0 mg/kg/injection, schedule: Q04DX002 (ip), vehicle: saline with Tween-80): 108 % of control

c1ccc([P+](Cc2ccc3ccccc3n2)(c2ccccc2)c2ccccc2)cc1
T/C (endpoint: mean survival time, dose: 6.25 mg/kg/injection, schedule: Q01DX009 (ip), vehicle: saline): 108 % of control
T/C (endpoint: mean survival time, dose: 12.5 mg/kg/injection, schedule: Q01DX009 (ip), vehicle: saline): 112 % of control

CCOC(=O)NC(C)(C)CN(C(=O)OCC)c1ccccc1
T/C [1]: 98 % of control
T/C [2]: 124 % of control
T/C [3]: 95 % of control

NS(=O)(=O)c1ccc(SSc2ccc(S(N)(=O)=O)cc2[N+](=O)[O-])c([N+](=O)[O-])c1
T/C [11]: 95 % of control
T/C [12]: 95 % of control
T/C [13]: 96 % of control
T/C (endpoint: mean survival time, dose: 100.0 mg/kg/injection, schedule: Q01DX009 (ip), vehicle: other): 98 % of control
T/C (endpoint: mean survival time, dose: 200.0 mg/kg/injection, schedule: Q01DX009 (ip), vehicle: other): 95 % of control

O=CNc1ccc(C(=O)O)c(O)c1
T/C [14]: 95 % of control
T/C (endpoint: mean survival time, dose: 100.0 mg/kg/injection, schedule: Q01DX009 (ip), vehicle: saline): 94 % of control and 95 % of control
T/C (endpoint: mean survival time, dose: 100.0 mg/kg/injection, schedule: Q04DX002 (ip), vehicle: saline): 97 % of control
T/C [4]: 100 % of control
T/C (endpoint: mean survival time, dose: 200.0 mg/kg/injection, schedule: Q01DX001 (ip), vehicle: saline): 100 % of control and 106 % of control
T/C (endpoint: mean survival time, dose: 200.0 mg/kg/injection, schedule: Q01DX009 (ip), vehicle: saline): 96 % of control and 98 % of control
T/C (endpoint: mean survival time, dose: 200.0 mg/kg/injection, schedule: Q04DX002 (ip), vehicle: saline): 86 % of control and 94 % of control
T/C [5]: 98 % of control
T/C (endpoint: mean survival time, dose: 400.0 mg/kg/injection, schedule: Q01DX001 (ip), vehicle: saline): 88 % of control and 92 % of control
T/C (endpoint: mean survival time, dose: 400.0 mg/kg/injection, schedule: Q01DX009 (ip), vehicle: saline): 100 % of control
T/C (endpoint: mean survival time, dose: 400.0 mg/kg/injection, schedule: Q04DX002 (ip), vehicle: saline): 92 % of control and 108 % of control
T/C [6]: 98 % of control

CCc1ccc(OC(C)=O)cc1
T/C [10]: 98 % of control
T/C (endpoint: mean survival time, dose: 100.0 mg/kg/injection, schedule: Q01DX009 (ip), vehicle: Klucel (hydroxypropylcellulose) (HPC)): 98 % of control
T/C (endpoint: mean survival time, dose: 200.0 mg/kg/injection, schedule: Q01DX009 (ip), vehicle: Klucel (hydroxypropylcellulose) (HPC)): 90 % of control

O=C1c2cccc(Oc3ccccc3)c2C(=O)c2cccc(Oc3ccccc3)c21
T/C [1]: 94 % of control
T/C [4]: 96 % of control
T/C [2]: 89 % of control
T/C [5]: 97 % of control
T/C [3]: 98 % of control
T/C [6]: 94 % of control

CC(=O)OCC1CCN2CCCC12 (stereo not drawn)
T/C (endpoint: mean survival time, dose: 12.5 mg/kg/injection, schedule: Q01DX009 (ip), vehicle: water): 101 % of control
T/C [15]: 96 % of control
T/C [16]: 98 % of control
T/C [17]: 101 % of control
T/C (endpoint: mean survival time, dose: 200.0 mg/kg/injection, schedule: Q01DX009 (ip), vehicle: water): 101 % of control

Nc1ccn(C2OC(COP(=O)(O)Oc3ccccc3)C(O)C2O)c(=O)n1 (stereo not drawn)
T/C (endpoint: mean survival time, dose: 12.5 mg/kg/injection, schedule: Q01DX009 (ip), vehicle: suspension in saline): 162 % of control
T/C (endpoint: mean survival time, dose: 25.0 mg/kg/injection, schedule: Q01DX009 (ip), vehicle: suspension in saline): 194 % of control
T/C (endpoint: mean survival time, dose: 50.0 mg/kg/injection, schedule: Q01DX009 (ip), vehicle: suspension in saline): 202 % of control
T/C (endpoint: mean survival time, dose: 100.0 mg/kg/injection, schedule: Q01DX009 (ip), vehicle: suspension in saline): 223 % of control

CC(=O)Nc1ccccc1C
T/C [4]: 97 % of control
T/C [5]: 97 % of control
T/C [6]: 99 % of control

Cc1ccc2c(c1)nc1c3ccccc3nnn21
T/C (endpoint: mean survival time, dose: 75.0 mg/kg/injection, schedule: Q01DX001 (ip), vehicle: saline): 95 % of control
T/C (endpoint: mean survival time, dose: 150.0 mg/kg/injection, schedule: Q01DX001 (ip), vehicle: saline): 95 % of control

COc1cc2ccc3c[n+](C)ccc3c2cc1OC
T/C [15]: 102 % of control and 100 % of control
T/C [16]: 107 % of control and 104 % of control
T/C [17]: 94 % of control and 114 % of control

O=C(O)O.O=C(O)O.O=C(O)O.[Co]
T/C [14]: 102 % of control
T/C (endpoint: mean survival time, dose: 400.0 mg/kg/injection, schedule: Q04DX003 (ip), vehicle: saline): 97 % of control

Cc1c(N)nc(I)c2ccccc12
T/C [1]: 98 % of control
T/C [2]: 93 % of control
T/C [3]: 87 % of control
